Experimental data published in patent US4324728A, “Compound nanaomycin A and derivatives thereof and a process for producing the same” (The Kitasato Institute, priority 1976, dated 1982).
Converted amounts (≈) assume the structure as drawn. Like-named read-outs stand apart in the source and are kept apart here.

Legend:
[1] = system: Staphylococcus aureus FDA 209P; assay: Minimal inhibitory concentration (agar); format: cell-based; settings: FDA209P, 48 h, nutrient agar, pH 7.0, 2 days, 37° C.
[2] = system: Bacillus subtilis PCI 219; assay: Minimal inhibitory concentration (agar); format: cell-based; settings: pH 7.0, 2 days, 37° C.
Protocol: (§1) Medium N nutrient agar (pH 7.0, 2 days, 37° C.)
(§2) MIC Minimal inhibitory concentration
(§3) N nutrient agar (pH 7.0, 2 days, 37° C.)

[3] = system: Sarcina lutea PCI 1001; assay: Minimal inhibitory concentration (agar); format: cell-based; settings: pH 7.0, 2 days, 37° C.
Protocol: as §1, §2, §3

[4] = system: Staphylococcus aureus FDA 209P (JC-1); assay: Minimal inhibitory concentration (agar); format: cell-based; settings: FDA209P, 48 h, nutrient agar, pH 7.0, 2 days, 37° C.
Protocol: as §1, §2, §3

[5] = system: Salmonella typhimurium; assay: Minimal inhibitory concentration (agar); format: cell-based; settings: Salmonella enterica, 48 h, pH 7.0, 2 days, 37° C.
[6] = system: Candida albicans; assay: Minimal inhibitory concentration (agar); format: cell-based; settings: pH 6.4, 4 days, 27° C.
Protocol: (§4) P potato agar (pH 6.4, 4 days, 27° C.)
as §2
(§5) Minimal inhibitory concentration was assayed by agar dilution method
(§6) (potato agar, pH 6.4, 27° C., 4 days).

[7] = system: Trichophyton rubrum; assay: Minimal inhibitory concentration (agar); format: cell-based; settings: pH 6.4, 4 days, 27° C.
Protocol: as §4, §2, §5, §6

[8] = system: Trichophyton schoenleini; assay: Minimal inhibitory concentration (agar); format: cell-based; settings: pH 6.4, 4 days, 27° C.
Protocol: as §4, §2, §5, §6

[9] = system: Saccharomyces sake; assay: Minimal inhibitory concentration (agar); format: cell-based; settings: Saccharomyces, 96 h, pH 6.4, 4 days, 27° C., read-out: MIC
[10] = system: Aspergillus niger ATCC 6275; assay: Minimal inhibitory concentration (agar); format: cell-based; settings: ATCC6275, 96 h, pH 6.4, 4 days, 27° C.
[11] = system: Trichophyton asteroides; assay: Minimal inhibitory concentration (agar); format: cell-based; settings: pH 6.4, 4 days, 27° C.
[12] = system: Trichophyton interdigitale; assay: Minimal inhibitory concentration (agar); format: cell-based; settings: Trichophyton interdigitale, 96 h; potato agar, pH 6.4, 4 days, 27° C.; read-out: MIC
[13] = system: Trichophyton roseum; assay: Minimal inhibitory concentration (agar); format: cell-based; settings: pH 6.4, 4 days, 27° C.
[14] = system: Mycobacterium smegmatis ATCC 607; assay: Minimal inhibitory concentration (agar); format: cell-based; settings: Mycolicibacterium smegmatis, ATCC607, 48 h; nutrient agar, pH 7.0, 2 days, 37° C.
[15] = system: Aspergillus fumigatus IAM 2162; assay: Minimal inhibitory concentration (agar); format: cell-based; settings: IAM2162, 96 h, potato agar, pH 6.4, 4 days, 27° C.
Protocol: | P potato agar (pH 6.4, 4 days, 27° C.)

[16] = system: Aerobacter aerogenes IAM 1183; assay: Minimal inhibitory concentration (agar); format: cell-based; settings: Klebsiella aerogenes, IAM1183, 48 h; nutrient agar, pH 7.0, 2 days, 37° C.
Protocol: as §3

[17] = system: Bacillus cereus T; assay: Minimal inhibitory concentration (agar); format: cell-based; settings: 48 h, nutrient agar, pH 7.0, 2 days, 37° C.
Protocol: as §3

[18] = system: Corynebacterium paurometabolum; assay: Minimal inhibitory concentration (agar); format: cell-based; settings: Tsukamurella paurometabola, 48 h; nutrient agar, pH 7.0, 2 days, 37° C.
Protocol: as §3

[19] = system: Proteus mirabilis; assay: Minimal inhibitory concentration (agar); format: cell-based; settings: 48 h, nutrient agar, pH 7.0, 2 days, 37° C.
Protocol: as §3

[20] = system: Proteus vulgaris IFO 3167; assay: Minimal inhibitory concentration (agar); format: cell-based; settings: IFO3167, 48 h, nutrient agar, pH 7.0, 2 days, 37° C.
Protocol: as §3

[21] = system: Pseudomonas aeruginosa P-3; assay: Minimal inhibitory concentration (agar); format: cell-based; settings: P3, 48 h, nutrient agar, pH 7.0, 2 days, 37° C.
Protocol: as §3

[22] = system: Shigella sonnei E 33; assay: Minimal inhibitory concentration (agar); format: cell-based; settings: E33, 48 h, nutrient agar, pH 7.0, 2 days, 37° C.
Protocol: as §3

[23] = system: Staphylococcus aureus FS 1227 (PC-R); assay: Minimal inhibitory concentration (agar); format: cell-based; settings: 48 h, nutrient agar, pH 7.0, 2 days, 37° C., penicillin resistant strain
Protocol: as §3

[24] = system: Staphylococcus aureus KB 61 (R-TC, EM); assay: Minimal inhibitory concentration (agar); format: cell-based; settings: 48 h, nutrient agar, pH 7.0, 2 days, 37° C., tetracyclin, erythromycin resistant strain, read-out: MIC
Protocol: as §3

[25] = system: Staphylococcus aureus KB 64 (R-TC, EM); assay: Minimal inhibitory concentration (agar); format: cell-based; settings: 48 h, nutrient agar, pH 7.0, 2 days, 37° C., tetracyclin, erythromycin resistant strain, read-out: MIC
Protocol: as §3

[26] = system: Mycoplasma gallisepticum KP-13; assay: Antimycoplasma activity, inhibition zone; format: cell-based; settings: Eiken PPLO agar, pH 7.8, 8 days, 37° C.
Protocol: E Eiken PPLO agar (pH 7.8, 8 days, 37° C.)
(§7) Nanaomycin A and derivatives thereof according to the present invention are assayed in a similar manner to that designated as the paper disc method by Itoh, et al [J. of Antibiotics, 24, 855-859 (1971)], for example, as follows: […]

[27] = system: Acholeplasma laidlawii (A); assay: Antimycoplasma activity, inhibition zone; format: cell-based; settings: Hokken PPLO agar, pH 7.8, 8 days, 37° C.
Protocol: H Hokken PPLO agar (pH 7.8, 8 days, 37° C.)
as §7

[28] = system: Gram-positive bacteria; assay: Antibacterial activity (in words); format: cell-based
[29] = system: mycoplasmas; assay: Antimycoplasma activity (in words); format: cell-based
[30] = Solubility; format: physicochemical
[31] = in vivo; settings: mouse, ip
[32] = Bacillus subtilis, PCI219, 48 h, pH 7, nutrient agar, read-out: MIC
[33] = Micrococcus luteus, PCI1001, 48 h, pH 7, nutrient agar, read-out: MIC
[34] = Candida albicans, 96 h, pH 6.4, potato agar, read-out: MIC
[35] = Trichophyton rubrum, 96 h, pH 6.4, potato agar, read-out: MIC
[36] = Trichophyton, 96 h, pH 6.4, potato agar, read-out: MIC

What does the source list for `CC1OC(CC(=O)O)CC2=C1C(=O)c1c(O)cccc1C2=O` (stereo not drawn) [Nanaomycin A, nanaomycin A]?
MIC [1]: 3.9 µg/mL (≈ 12.9 µM); MIC [2, 32]: 6.3 µg/mL (≈ 20.8 µM); MIC ([2]; nutrient agar): 7.8 µg/mL (≈ 25.8 µM); MIC [3, 33]: 1.6 µg/mL (≈ 5.29 µM); MIC ([3]; nutrient agar): 2.0 µg/mL (≈ 6.62 µM); MIC [4]: 2 µg/mL (≈ 6.62 µM); MIC ([5]; nutrient agar): 100 µg/mL (≈ 331 µM); MIC ([5]; pH 7, nutrient agar): 62.5 µg/mL (≈ 207 µM); MIC [6, 34]: 50 µg/mL (≈ 165 µM); MIC ([6]; potato agar): 31.2 µg/mL (≈ 103 µM); MIC [7, 35]: < 0.2 µg/mL; MIC ([7]; potato agar): < 0.1 µg/mL; MIC [8, 36]: < 0.2 µg/mL; MIC ([8]; potato agar): 0.2 µg/mL (≈ 0.662 µM); MIC ([9]; pH 6.4, potato agar): 12.5 µg/mL (≈ 41.4 µM); MIC ([9]; potato agar): 31.2 µg/mL (≈ 103 µM); MIC ([10]; pH 6.4, potato agar): 62.5 µg/mL (≈ 207 µM); MIC ([10]; potato agar, read-out: MIC): 25 µg/mL (≈ 82.7 µM); MIC [11, 36]: 0.8 µg/mL (≈ 2.65 µM); MIC ([11]; potato agar): 1.6 µg/mL (≈ 5.29 µM); MIC [12]: 1.6 µg/mL (≈ 5.29 µM); MIC [13, 36]: < 0.2 µg/mL; MIC ([13]; potato agar): 0.4 µg/mL (≈ 1.32 µM); MIC [14]: 100 µg/mL (≈ 331 µM); MIC [15]: 6.3 µg/mL (≈ 20.8 µM); MIC [16]: > 100 µg/mL; MIC [17]: 12.5 µg/mL (≈ 41.4 µM); MIC [18]: 12.5 µg/mL (≈ 41.4 µM); MIC [19]: > 100 µg/mL; MIC [20]: 50 µg/mL (≈ 165 µM); MIC [21]: > 100 µg/mL; MIC [22]: 100 µg/mL (≈ 331 µM); MIC [23]: 1.6 µg/mL (≈ 5.29 µM); MIC [24]: 1.6 µg/mL (≈ 5.29 µM); MIC [25]: 0.8 µg/mL (≈ 2.65 µM); Inhibition Zone [26]: 28.7 mm; Inhibition Zone [27]: none; activity against Gram-positive bacteria [28]: strong activity; activity against mycoplasma(s) [29]: high activity; Solubility in ether [30]: Easily soluble; Solubility in methanol, ethanol, ethylacetate, chloroform and acetone [30]: Easily soluble; Solubility in n-hexane and petroleum ether [30]: Insoluble; Solubility in water [30]: Insoluble; LD50 [31]: 28.2 mg/kg

For `CC(=O)Oc1cccc2c1C(=O)C1=C(CC(CC(=O)O)OC1C)C2=O` (stereo not drawn) [Acetylnanaomycin A, acetylnanaomycin A], which MIC [1] is on record?
Its MIC is 1.6 µg/mL (≈ 4.65 µM).

What about the MIC [2, 32] of the same compound?
The MIC was 3.1 µg/mL (≈ 9 µM).

And the MIC [3, 33]?
Its MIC is 1.6 µg/mL (≈ 4.65 µM).

And the MIC [4]?
Its MIC is 0.8 µg/mL (≈ 2.32 µM).

And the MIC ([5]; nutrient agar)?
The MIC was 50 µg/mL (≈ 145 µM).

What about the MIC [6, 34] of the same compound?
Its MIC is 25 µg/mL (≈ 72.6 µM).

And the MIC [7, 35]?
The MIC was less than 0.2 µg/mL.

What about the MIC [8, 36] of the same compound?
The MIC was less than 0.2 µg/mL.

And the MIC ([9]; pH 6.4, potato agar)?
The MIC was 12.5 µg/mL (≈ 36.3 µM).

What about the MIC ([10]; potato agar, read-out: MIC) of the same compound?
The MIC was 25 µg/mL (≈ 72.6 µM).

What about the MIC [11, 36] of the same compound?
The MIC was 0.8 µg/mL (≈ 2.32 µM).

And the MIC [12]?
The MIC was 1.6 µg/mL (≈ 4.65 µM).

What about the MIC [13, 36] of the same compound?
Its MIC is 0.4 µg/mL (≈ 1.16 µM).

And the MIC [14]?
The MIC was 50 µg/mL (≈ 145 µM).

What about the MIC [15] of the same compound?
The MIC was 6.3 µg/mL (≈ 18.3 µM).

What about the MIC [16] of the same compound?
The MIC was greater than 100 µg/mL.

What about the MIC [17] of the same compound?
Its MIC is 25 µg/mL (≈ 72.6 µM).

What about the MIC [18] of the same compound?
The MIC was 6.3 µg/mL (≈ 18.3 µM).

What about the MIC [19] of the same compound?
The MIC was greater than 100 µg/mL.

And the MIC [20]?
Its MIC is 50 µg/mL (≈ 145 µM).

And the MIC [21]?
The MIC was greater than 100 µg/mL.

And the MIC [22]?
Its MIC is 100 µg/mL (≈ 290 µM).

And the MIC [23]?
Its MIC is 0.8 µg/mL (≈ 2.32 µM).

What about the MIC [24] of the same compound?
Its MIC is 0.8 µg/mL (≈ 2.32 µM).

And the MIC [25]?
Its MIC is 0.4 µg/mL (≈ 1.16 µM).

What about the “Inhibition Zone” value [26] of the same compound?
The value was 28.5 mm.

And the “Inhibition Zone” value [27]?
The value was “none”.

And the “activity against Gram-positive bacteria” value [28]?
Its value is “a strong activity against Gram-positive bacteria than nanaomycin A”.

And the “activity against mycoplasma(s)” value [29]?
Its value is “as strong activity against fungi and mycoplasmas as nanaomycin A”.

And the Solubility in ether [30]?
The Solubility in ether was “Soluble”.

What about the “Solubility in methanol, ethanol, ethylacetate, chloroform and acetone” value [30] of the same compound?
Its value is “Soluble”.

And the “Solubility in n-hexane and petroleum ether” value [30]?
Its value is “Insoluble”.

And the Solubility in water [30]?
Its Solubility in water is “Insoluble”.

What about the LD50 [31] of the same compound?
The LD50 was 38.5 mg/kg.
